Source: ChEMBL document CHEMBL3217416, “[4-(6,7-Disubstituted quinazolin-4-ylamino)phenyl] carbamic acid esters: a novel series of dual EGFR/VEGFR-2 tyrosine kinase inhibitors” (Medchemcomm, 2011)
pIC50: −log10 of the molar value. One block for each compound: values may come before it.

Columns and labels:
[1] = biological target: Epidermal growth factor receptor (Homo sapiens, UniProt P00533); experiment: Inhibition of EGFR (unknown origin)
MCF7 [2] = experiment: Antiproliferative activity against human MCF7 cells by MTS assay; format: functional
HT-29 [3] = experiment: Antiproliferative activity against human HT-29 cells by MTS assay; format: functional
PC-3 [4] = experiment: Antiproliferative activity against human PC3 cells by MTS assay; format: functional
[5] = biological target: Vascular endothelial growth factor receptor 2 (Homo sapiens, UniProt P35968); experiment: Inhibition of VEGFR2 (unknown origin)
PC-3 [6] = experiment: Antiproliferative activity against human PC3 cells at 10 uM by MTS assay; format: functional, cell-based
HT-29 [7] = experiment: Antiproliferative activity against human HT-29 cells at 10 uM by MTS assay; format: functional, cell-based
[8] = Antiproliferative activity against human EAhy926 cells by MTS assay; format: functional, cell-based; details: EA.hy 926
MCF7 [9] = experiment: Antiproliferative activity against human MCF7 cells […] by MTS assay; format: functional, cell-based

Chain of Epidermal growth factor receptor (P00533 whole entry): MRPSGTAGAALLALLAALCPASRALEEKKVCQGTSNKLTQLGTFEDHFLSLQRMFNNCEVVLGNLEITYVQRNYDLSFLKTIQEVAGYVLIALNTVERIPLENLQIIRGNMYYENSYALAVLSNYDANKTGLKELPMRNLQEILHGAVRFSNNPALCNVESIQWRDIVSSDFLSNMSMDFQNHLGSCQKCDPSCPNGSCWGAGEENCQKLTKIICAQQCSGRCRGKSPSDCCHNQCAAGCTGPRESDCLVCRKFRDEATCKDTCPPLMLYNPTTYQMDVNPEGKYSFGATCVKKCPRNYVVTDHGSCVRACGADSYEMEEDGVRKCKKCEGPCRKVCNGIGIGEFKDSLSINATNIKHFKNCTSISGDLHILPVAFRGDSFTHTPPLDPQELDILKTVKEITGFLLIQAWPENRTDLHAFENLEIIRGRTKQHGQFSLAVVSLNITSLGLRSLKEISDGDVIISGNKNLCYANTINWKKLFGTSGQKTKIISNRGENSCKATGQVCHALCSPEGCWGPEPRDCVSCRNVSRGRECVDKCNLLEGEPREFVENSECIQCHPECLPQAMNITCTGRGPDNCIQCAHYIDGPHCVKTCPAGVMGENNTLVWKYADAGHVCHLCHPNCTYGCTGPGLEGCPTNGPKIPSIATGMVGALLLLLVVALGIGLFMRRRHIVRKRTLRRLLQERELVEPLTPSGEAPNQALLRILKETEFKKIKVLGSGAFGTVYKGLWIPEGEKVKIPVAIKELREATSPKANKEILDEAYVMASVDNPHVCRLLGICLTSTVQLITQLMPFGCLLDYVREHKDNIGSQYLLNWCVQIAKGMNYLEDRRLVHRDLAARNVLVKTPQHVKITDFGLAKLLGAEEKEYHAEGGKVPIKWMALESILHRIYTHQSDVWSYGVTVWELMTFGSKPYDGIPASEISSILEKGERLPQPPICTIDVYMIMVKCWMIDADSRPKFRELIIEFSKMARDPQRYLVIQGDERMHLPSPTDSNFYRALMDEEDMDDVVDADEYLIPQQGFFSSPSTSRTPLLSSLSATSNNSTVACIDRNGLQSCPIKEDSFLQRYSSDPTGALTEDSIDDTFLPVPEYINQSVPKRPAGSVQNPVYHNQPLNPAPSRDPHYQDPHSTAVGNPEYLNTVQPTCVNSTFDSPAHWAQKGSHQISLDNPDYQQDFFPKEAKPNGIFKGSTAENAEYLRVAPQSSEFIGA
Chain of Vascular endothelial growth factor receptor 2 (P35968 whole entry): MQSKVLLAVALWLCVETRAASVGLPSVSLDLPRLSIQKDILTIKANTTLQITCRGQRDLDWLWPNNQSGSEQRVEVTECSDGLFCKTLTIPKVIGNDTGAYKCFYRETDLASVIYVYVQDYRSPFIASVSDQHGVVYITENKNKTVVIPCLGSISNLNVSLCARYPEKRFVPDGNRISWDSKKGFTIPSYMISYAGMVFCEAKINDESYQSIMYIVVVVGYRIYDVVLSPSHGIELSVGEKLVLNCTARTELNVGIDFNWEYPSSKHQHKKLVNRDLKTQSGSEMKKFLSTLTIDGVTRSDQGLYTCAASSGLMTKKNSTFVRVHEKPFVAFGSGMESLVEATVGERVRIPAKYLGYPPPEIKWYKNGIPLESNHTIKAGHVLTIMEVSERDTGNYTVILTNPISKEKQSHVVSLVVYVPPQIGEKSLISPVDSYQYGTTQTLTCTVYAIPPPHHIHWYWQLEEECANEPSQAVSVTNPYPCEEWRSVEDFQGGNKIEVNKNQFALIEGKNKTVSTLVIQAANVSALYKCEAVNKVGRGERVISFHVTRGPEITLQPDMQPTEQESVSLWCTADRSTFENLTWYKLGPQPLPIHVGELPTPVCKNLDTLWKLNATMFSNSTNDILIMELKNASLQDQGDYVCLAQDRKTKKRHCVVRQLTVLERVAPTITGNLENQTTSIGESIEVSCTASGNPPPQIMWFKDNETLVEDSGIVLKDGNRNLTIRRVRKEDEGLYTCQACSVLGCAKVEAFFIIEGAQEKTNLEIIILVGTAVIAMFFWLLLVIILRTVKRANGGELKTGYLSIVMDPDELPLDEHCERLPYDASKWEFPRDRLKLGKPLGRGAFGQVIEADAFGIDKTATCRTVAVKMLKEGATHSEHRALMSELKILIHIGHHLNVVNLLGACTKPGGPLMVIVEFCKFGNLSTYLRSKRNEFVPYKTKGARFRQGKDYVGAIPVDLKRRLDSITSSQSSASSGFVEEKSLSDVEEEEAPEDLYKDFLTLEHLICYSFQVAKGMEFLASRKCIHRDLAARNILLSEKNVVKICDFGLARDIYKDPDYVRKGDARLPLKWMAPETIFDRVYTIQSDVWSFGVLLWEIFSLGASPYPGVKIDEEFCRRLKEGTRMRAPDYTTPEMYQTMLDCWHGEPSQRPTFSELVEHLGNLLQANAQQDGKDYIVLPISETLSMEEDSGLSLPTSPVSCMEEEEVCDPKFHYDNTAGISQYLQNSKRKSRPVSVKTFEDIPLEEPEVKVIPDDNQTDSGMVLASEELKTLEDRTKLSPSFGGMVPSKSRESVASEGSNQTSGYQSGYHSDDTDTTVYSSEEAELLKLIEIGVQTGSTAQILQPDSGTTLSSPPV

pIC50 [1]: 6.00
SMILES: CCCOC(=O)Nc1ccc(Nc2ncnc3cc(OC)c(OC)cc23)cc1Cl

pIC50 [1]: 5.19
SMILES: CCCCOC(=O)Nc1ccc(Nc2ncnc3cc(OC)c(OC)cc23)cc1Cl

pIC50 [1]: < 5.00
SMILES: CCOC(=O)Nc1cc(Cl)c(Nc2ncnc3cc(OC)c(OC)cc23)cc1Cl.Cl
inhibition (INH) (MCF7 [2]): 6%
inhibition (INH) (HT-29 [3]): 5%
inhibition (INH) (PC-3 [4]): 0%

pIC50 [1]: < 5.00
SMILES: CCNC(=O)Nc1cc(Cl)c(Nc2ncnc3cc(OC)c(OC)cc23)cc1Cl.Cl
inhibition (INH) (MCF7 [2]): 21%
inhibition (INH) (HT-29 [3]): 16%
inhibition (INH) (PC-3 [4]): 11%

pIC50 [1]: < 5.00
SMILES: CCCCNC(=O)Nc1cc(Cl)c(Nc2ncnc3cc(OC)c(OC)cc23)cc1Cl.Cl
inhibition (INH) (MCF7 [2]): 0%
inhibition (INH) (HT-29 [3]): 3%
inhibition (INH) (PC-3 [4]): 0%

pIC50 [1]: < 5.00
SMILES: COc1cc2ncnc(Nc3ccc(NC(C)=O)c(C)c3)c2cc1OC.Cl
inhibition (INH) (MCF7 [2]): 0%
inhibition (INH) (HT-29 [3]): 0%
inhibition (INH) (PC-3 [4]): 0%

pIC50 [1]: < 5.00
SMILES: CCC(=O)Nc1ccc(Nc2ncnc3cc(OC)c(OC)cc23)cc1C.Cl
inhibition (INH) (MCF7 [2]): 28%
inhibition (INH) (HT-29 [3]): 0%
inhibition (INH) (PC-3 [4]): 0%

pIC50 [5]: 5.37
pIC50 [1]: < 5.00
SMILES: CCCC(=O)Nc1ccc(Nc2ncnc3cc(OC)c(OC)cc23)cc1C

pIC50 [1]: < 5.00
SMILES: CCCCC(=O)Nc1ccc(Nc2ncnc3cc(OC)c(OC)cc23)cc1C

pIC50 (PC-3 [6]): < 5.00
pIC50 (HT-29 [7]): < 5.00
pIC50 [5]: 5.43
pIC50 (MCF7 [9]): < 5.00
pIC50 [1]: < 5.00
SMILES: CCOC(=O)Nc1ccc(Nc2ncnc3cc(OCCN(CC)CC)c(OC)cc23)cc1C
pIC50 [8]: < 5.00

pIC50 (PC-3 [6]): < 5.00
pIC50 (HT-29 [7]): < 5.00
pIC50 [5]: 5.14
pIC50 (MCF7 [9]): < 5.00
pIC50 [1]: < 5.00
SMILES: CCOC(=O)Nc1ccc(Nc2ncnc3cc(OC)c(OCCN(CC)CC)cc23)cc1C
pIC50 [8]: < 5.00

pIC50 (PC-3 [6]): < 5.00
pIC50 (HT-29 [7]): 5.28
pIC50 [5]: 6.05
pIC50 (MCF7 [9]): < 5.00
pIC50 [1]: < 5.00
SMILES: CCOC(=O)Nc1ccc(Nc2ncnc3cc(OCCN4CCCCC4)c(OC)cc23)cc1C
pIC50 [8]: 5.03

pIC50 (PC-3 [6]): < 5.00
pIC50 (HT-29 [7]): < 5.00
pIC50 [5]: 6.40
pIC50 (MCF7 [9]): < 5.00
pIC50 [1]: 5.10
SMILES: CCOC(=O)Nc1ccc(Nc2ncnc3cc(OCCN4CCOCC4)c(OC)cc23)cc1C
pIC50 [8]: < 5.00

pIC50 [1]: 5.41
SMILES: CCCOc1cc2ncnc(Nc3ccc(NC(=O)OCC)c(C)c3)c2cc1OC

pIC50 (PC-3 [6]): < 5.00
pIC50 [5]: 5.24
pIC50 (MCF7 [9]): < 5.00
pIC50 [1]: < 5.00
SMILES: CCCCOc1cc2c(Nc3ccc(NC(=O)OCC)c(C)c3)ncnc2cc1OCCN(CC)CC
pIC50 [8]: 5.09

pIC50 (PC-3 [6]): < 5.00
pIC50 [5]: 5.48
pIC50 (MCF7 [9]): < 5.00
pIC50 [1]: < 5.00
SMILES: CCOC(=O)Nc1ccc(Nc2ncnc3cc(OCCN(CC)CC)c(OC)cc23)cc1Cl
pIC50 [8]: 5.21

pIC50 (PC-3 [6]): < 5.00
pIC50 (HT-29 [7]): 5.28
pIC50 [5]: 6.10
pIC50 (MCF7 [9]): 5.52
pIC50 [1]: < 5.00
SMILES: CCOC(=O)Nc1ccc(Nc2ncnc3cc(OCCN4CCCCC4)c(OC)cc23)cc1Cl
pIC50 [8]: 5.03

pIC50 (PC-3 [6]): < 5.00
pIC50 (HT-29 [7]): < 5.00
pIC50 [5]: 6.52
pIC50 (MCF7 [9]): < 5.00
pIC50 [1]: 5.07
SMILES: CCOC(=O)Nc1ccc(Nc2ncnc3cc(OCCN4CCOCC4)c(OC)cc23)cc1Cl
pIC50 [8]: < 5.00

pIC50 [1]: 5.26
SMILES: CCCOc1cc2ncnc(Nc3ccc(NC(=O)OCC)c(Cl)c3)c2cc1OC

pIC50 (PC-3 [6]): < 5.00
pIC50 [5]: 5.32
pIC50 [1]: 5.01
SMILES: CCCCOc1cc2c(Nc3ccc(NC(=O)OCC)c(Cl)c3)ncnc2cc1OCCN(CC)CC
pIC50 [8]: 5.55

pIC50 [1]: 5.15
SMILES: CCCOC(=O)Nc1ccc(Nc2ncnc3cc(OC)c(OC)cc23)cc1

pIC50 [1]: 6.10
SMILES: CCCCOC(=O)Nc1ccc(Nc2ncnc3cc(OC)c(OC)cc23)cc1

pIC50 [1]: 5.40
SMILES: COC(=O)Nc1ccc(Nc2ncnc3cc(OC)c(OC)cc23)cc1C

pIC50 [1]: 6.05
SMILES: CCOC(=O)Nc1ccc(Nc2ncnc3cc(OC)c(OC)cc23)cc1C

pIC50 [1]: 5.30
SMILES: CCOC(=O)Nc1cc(Nc2ncnc3cc(OC)c(OC)cc23)ccc1C

pIC50 [5]: 5.28
pIC50 [1]: 5.12
SMILES: CCCCOC(=O)Nc1ccc(Nc2ncnc3cc(OC)c(OC)cc23)cc1C

pIC50 [5]: 5.30
pIC50 [1]: 5.21
SMILES: COC(=O)Nc1ccc(Nc2ncnc3cc(OC)c(OC)cc23)cc1Cl

pIC50 [1]: < 5.00
SMILES: COC(=O)Nc1cc(Nc2ncnc3cc(OC)c(OC)cc23)ccc1Cl.Cl
inhibition (INH) (MCF7 [2]): 0%
inhibition (INH) (HT-29 [3]): 0%
inhibition (INH) (PC-3 [4]): 3%

pIC50 [1]: 6.00
SMILES: CCOC(=O)Nc1ccc(Nc2ncnc3cc(OC)c(OC)cc23)cc1Cl

pIC50 [1]: 6.05
SMILES: CCOC(=O)Nc1cc(Nc2ncnc3cc(OC)c(OC)cc23)ccc1Cl

SMILES: COc1cc2/c(=N/c3ccc(Br)cc3F)nc[nH]c2cc1OCC1CCN(C)CC1 [VANDETANIB]
inhibition (INH) (MCF7 [2]): 26%
inhibition (INH) (PC-3 [4]): 33%
